Laboratory results reported in patent publication EP0112669A2, “Phenethylamine derivatives and intermediates therefor” (AMERICAN HOME PRODUCTS CORPORATION, priority 1982, dated 1984).
Like-named read-outs stand apart in the source and are kept apart here.

How the values were obtained:
[1] = target: ^3H-imipramine binding in brain tissue
[2] = target: T1, synaptosomal uptake of serotonin (14C-5-HT) (Homo sapiens, UniProt P31645); assay: biochemical
T1 construct: from tissue

[3] = tested on: reserpine-induced hypothermia; assay: Antagonism of reserpine-induced hypothermia; format: in vivo, mice; details: for minimal effective dose: Mus musculus, read-out: minimum effective dose (M.E.D.), antagonism of reserpine-induced hypothermia; for potency relative to Compound A in reversal of reserpine-induced hypothermia: compared with Compound A
Description: 37, 795-797 (1981); and antagonize reserpine induced hypothermia when tested in accordance with the procedure of Askew, Life Sci. 1, 725-730 (1963).
All mice received 5mg/kg reserpine s.c. 18 h prior to test compound.

[4] = target: synaptosomal uptake of norepinephrine (^3H-NE); assay: Inhibition of synaptosomal NE uptake
muscarinic receptor = details: read-out: Ki (^3H-QNB binding)
[5] = tested on: carbachol-stimulated contraction of the guinea-pig ileum; assay: Inhibition of carbachol-stimulated contraction of guinea-pig ileum
[6] = read-out: inhibition constant (Ki) vs. ^3H-imipramine
[7] = ip, mice, n = 8 per group, 5mg/kg reserpine s.c. 18 h prior to test compound
[8] = unit inferred, read-out: inhibition constants (vs. ^3H-imipramine)

synaptosomal uptake of norepinephrine (^3H-NE), sequence (P23975 whole entry): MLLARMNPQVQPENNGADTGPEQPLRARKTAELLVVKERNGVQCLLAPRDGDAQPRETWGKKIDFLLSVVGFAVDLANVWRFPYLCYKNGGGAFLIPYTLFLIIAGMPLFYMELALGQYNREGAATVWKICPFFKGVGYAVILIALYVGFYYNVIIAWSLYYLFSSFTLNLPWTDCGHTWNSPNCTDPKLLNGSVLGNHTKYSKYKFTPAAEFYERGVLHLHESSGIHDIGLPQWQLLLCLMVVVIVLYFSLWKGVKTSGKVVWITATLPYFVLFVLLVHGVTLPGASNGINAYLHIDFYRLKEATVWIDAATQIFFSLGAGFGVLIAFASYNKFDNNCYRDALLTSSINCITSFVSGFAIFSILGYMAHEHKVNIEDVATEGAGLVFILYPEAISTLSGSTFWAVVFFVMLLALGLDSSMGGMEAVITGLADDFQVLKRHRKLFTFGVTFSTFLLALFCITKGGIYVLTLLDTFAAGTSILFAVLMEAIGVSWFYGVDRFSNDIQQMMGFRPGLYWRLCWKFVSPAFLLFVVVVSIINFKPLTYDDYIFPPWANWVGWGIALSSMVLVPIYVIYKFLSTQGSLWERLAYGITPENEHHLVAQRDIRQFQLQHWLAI
T1 sequence (P31645 whole entry): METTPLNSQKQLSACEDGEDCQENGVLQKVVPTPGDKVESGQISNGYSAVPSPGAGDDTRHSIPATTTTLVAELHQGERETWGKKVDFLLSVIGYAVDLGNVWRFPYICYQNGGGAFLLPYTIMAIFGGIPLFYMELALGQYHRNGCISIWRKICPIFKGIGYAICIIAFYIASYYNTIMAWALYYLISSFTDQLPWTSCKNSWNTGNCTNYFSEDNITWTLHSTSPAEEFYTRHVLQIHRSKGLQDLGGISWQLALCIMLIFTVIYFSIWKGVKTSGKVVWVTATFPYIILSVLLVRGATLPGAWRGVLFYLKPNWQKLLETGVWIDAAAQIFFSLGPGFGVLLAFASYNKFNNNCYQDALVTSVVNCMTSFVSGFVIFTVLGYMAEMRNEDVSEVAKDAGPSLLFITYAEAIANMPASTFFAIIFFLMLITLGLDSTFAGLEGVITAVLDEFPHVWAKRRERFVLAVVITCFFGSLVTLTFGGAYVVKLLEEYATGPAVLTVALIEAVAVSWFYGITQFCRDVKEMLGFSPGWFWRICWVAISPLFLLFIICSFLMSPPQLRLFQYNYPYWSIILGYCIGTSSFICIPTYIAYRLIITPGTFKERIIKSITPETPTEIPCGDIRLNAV

SMILES	minimal effective dose [3, 7]	potency relative to Compound A in reversal of reserpine-induced hypothermia ([3]; mice)	IC50 [4]	Ki [1, 8]	other results
CN(C)CC(c1ccc(Cl)cc1)C1(O)CCCCC1 (centres unmarked) [Compound C, 1-[1-(4-chlorophenyl)-2-(dimethylamino)ethyl]-cyclohexanol]	10 mg/kg	approximately equipotent	330 nM		Ki [1, 6]: 100 nM; IC50 [2]: 250 nM
CN(C)CCCN1c2ccccc2CCc2ccccc21 [Imipramine, reference compound]					Ki (muscarinic receptor): 37 nM; Kb ([5]; Cavia porcellus, read-out: KB against carbachol-stimulated contraction of the guinea-pig ileum): ~100 nM
CN(C)CC(c1cccc(Br)c1)C1(O)CCCCC1 (centres unmarked) [Compound F, 1-[1-(3-bromophenyl)-2-(dimethylamino)ethyl]-cyclohexanol]	1 mg/kg	approximately ten times as potent		52 nM	
COc1ccc(C(CN(C)C)C2(O)CCCCC2)cc1 (racemic) [Compound A, 1-[(2-dimethylamino)-1-(4-methoxyphenyl)ethyl]-cyclohexanol]					activity against carbachol-stimulated contraction of the guinea-pig ileum ([5]; at 1 µM): inactive; minimal effective dose ([3]; ip): 10 mg/kg; minimal effective dose ([3]; po): 10 mg/kg
COc1ccc(C2CN(C)COC23CCCCC3)cc1 (stereo not drawn) [Compound B, 5-(4-methoxyphenyl)-3-methyl-3-aza-l-oxas^piro(5.5) undecane]	30 mg/kg	less potent	4700 nM		Ki [1, 6]: 350 nM; IC50 [2]: 2900 nM
CNCCCN1c2ccccc2CCc2ccccc21 [DMI, desmethyl- imipramine, reference compound]					Ki (muscarinic receptor): […]; minimal effective dose ([3]; ip): 0.4 mg/kg
CN(C)CC(c1ccc(Br)cc1)C1(O)CCCCC1 (centres unmarked) [Compound D, 1-[1-(4-bromophenyl)-2-(dimethylamino)ethyl]-cyclohexanol]	3 mg/kg	approximately three times as potent		62 nM	
CN(C)CC(c1cccc(Cl)c1)C1(O)CCCCC1 (centres unmarked) [Compound E, 1-[1-(3-chlorophenyl)-2-(dimethylamino)ethyl]-cyclohexanol]	1 mg/kg				Ki ([1]; read-out: inhibition constants (vs. ^3H-imipramine)): 130 nM
CN(C)CC(c1ccc(Cl)c(Cl)c1)C1(O)CCCCC1 (centres unmarked) [Compound G, 1-[1-(3,4-dichlorophenyl)-2-(dimethylamino)ethyl]-cyclohexanol]	3 mg/kg	approximately three times as potent	70 nM	37 nM	
